# Reference: patent US8158560B2, “Insecticidal arylpyrroline compounds” (Bayer CropScience AG, priority 2009, dated 2012)
# Tests used:
# Type in all cases: in vivo
# Spodoptera litura = test: Biological Test Example 1: test against tobacco cutworm (Spodoptera litura) larvae, sweet potato leaf dip; settings: foliar, 168 h, active compound concentration 100 ppm, third instar larvae, after 7 days, read-out: insecticidal activity
# Method: (§1) Unless not mentioned otherwise, the test solutions were prepared as follows:
# (§2) Containing as solvent: Dimethylformamide, 3 parts by weight; and as emulsifier: Polyoxyethylene alkyl phenyl ether, 1 part by weight
# (§3) To prepare the test solution, 1 part by weight of an active compound is mixed with the above-mentioned amount of solvent containing the above-mentioned amount of emulsifier, and the mixture is diluted with water to the desired concentration.
# Test Against Tobacco Cutworm (Spodoptera litura) Larvae
# Leaves of sweet potato were immersed in the test solution at the appropriate concentration, and the leaves were dried in air. The leaves were then placed in a petri dish having a diameter of 9 cm, and ten Spodoptera litura at third instar larvae were released therein. The petri dishes were placed in a temperature-controlled chamber at 25° C.
# After 2 days and 4 days more sweet potato leaves were added. After 7 days, the number of dead larvae was counted and the insecticidal activity was calculated. An insecticidal activity of 100% means that all larvae were killed, whereas an insecticidal activity of 0% means that no larva was killed. In the current test, the results of two petri dishes for each treatment were averaged.
# Tetranychus urticae = test: Biological Test Example 2: test against two-spotted spider mite (Tetranychus urticae), spray on kidney bean; settings: 168 h, active compound concentration 100 ppm, adult mites, after 7 days, read-out: acaricidal activity
# Method: as §1, §2, §3
# Test Against Two-Spotted Spider Mite (Tetranvchus urticae)
# 50 to 100 adult mites of Tetranychus urticae were inoculated to leaves of kidney bean at two-leaf stage planted in a pot of 6 cm in diameter. After one day, test solution at the appropriate concentration was sprayed thereon in a sufficient amount using a spray gun. After the spraying, the plant pot was placed inside a greenhouse, and after 7 days, the acaricidal activity was calculated. An acaricidal activity of 100% means that all mites were killed, whereas an acaricidal activity of 0% means that no mite was killed.
# Aulacophora femoralis = test: Biological Test Example 3: test against cucurbit leaf beetle (Aulacophora femoralis), cucumber leaf dip; settings: foliar, 168 h, active compound concentration 100 ppm, second instar larvae, after 7 days, read-out: insecticidal activity
# Method: as §1, §2, §3
# Test Against Cucurbit Leaf Beetle (Aulacophora femoralis)
# Leaves of cucumber were immersed in the test solution at the appropriate concentration, and the leaves were dried in air. The leaves were then put in a plastic cup containing sterilized black soil and five Aulacophora femoralis at second instar larvae were released in the cup. The cups were placed in a temperature-controlled chamber at 25° C. After 7 days, the number of dead larvae was counted, and the insecticidal activity was calculated. An insecticidal activity of 100% means that all larvae were killed, whereas an insecticidal activity of 0% means that no larva was killed.
# [1] = system: organic phosphorus agent- and carbamate agent-resistant Myzus persicae; test: Biological Test Example 4: test against organic phosphorus agent- and carbamate agent-resistant green peach aphid (Myzus persicae), spray on eggplant; settings: active compound concentration 100 ppm; after 7 days
# Method: as §1, §2, §3
# Test Against Organic Phosphorus Agent- and Carbamate Agent Resistant Green Peach Aphid (Myzus persicae)
# 50 to 100 head of organic phosphorous agent- and carbamate agent-resistant Myzus persicae were inoculated to leaves of eggplant at two-leaf stage, planted in a pot of 6 cm in diameter. After one day, test solution at the appropriate concentration was sprayed thereon in a sufficient amount using a spray gun. After the spraying, the plant pot was placed inside a greenhouse, and after 7 days, the insecticidal rate was calculated.
# An insecticidal activity of 100% means that all aphids were killed, whereas an insecticidal activity of 0% means that no aphid was killed.
# [2] = system: Myzus persicae-resistant strain, mixed population; test: Myzus persicae spray test (MYZUPE); settings: 4 ppm, 6 dat, rating scheme
# Method: Myzus persicae—Spray Test (MYZUPE)
# Insect: Myzus persicae-resistant strain, mixed population
# Plant: Eggplant seedling (Solanum melongena var. Senryo 2gou) 2 leaf age (4-5 weeks after sowing), transplanted into vinyl pots of 60 mm diameter
# Solvent pre-mixture: Sorpol® SD: Sorpol® BDB:Dimethylformamide=3:3:14; 10 mg a.i. is solved with 0.05 ml solvent pre-mixture. Water for dilution contains RME and AS (1000 ppm each) or 0.1% of spreader. Solutions are diluted at the rate of 1:5 for limit concentration determination.
# Procedure: 1 day before treatment aphids are inoculated onto the testing plants, about 50 aphids per leaf, 100 for 1 pot. A paper label is placed on each pot. Solutions are sprayed directly onto both insects and plants. After drying pots are placed in the greenhouse at 20° C.-25° C. and 50-60% relative humidity.
# After the specified period of time the mortality in % is determined and the rate of death is calculated according to the following scheme/criteria: […]
# [3] = system: Nephotettix cincticeps-MR, resistant strain, 3rd-4th instar nymphs; test: Nephotettix cincticeps spray test (NEPHCI); settings: 7 dat
# Method: Nephotettix cincticeps-Spray Test (NEPHCl)
# Insect: Nephotettix cincticeps-MR, resistant strain, 3rd-4th instar nymphs from own culture
# Plant: Rice seedlings (Oryza sativa var. Tamanishiki)
# Material: ST-method container (200 ml desiccant polystyrene bottle) with a hole in the bottom sealed with metal mesh. The lid has a pit inside to keep desiccant, and it is used to sow rice seeds. The bottle is used upside down as “cover”, the lid with seedling is called “base”. Plastic stand-board with magnet labels to line the ST Bases up (“Stand”)
# Solvent pre-mixture: Sorpol® SD: Sorpol® BDB:Dimethylformamide=3:3:14 10 mg a i. is solved with 0.05 ml solvent pre-mixture. Water for dilution contains RME and AS (1000 ppm each) or 0.1% of spreader. Solutions are diluted at the rate of 1:5 for limit concentration determination.
# Procedure: On a pit in the center of a base (originally the desiccant space) pieces of paper towel are placed. 20-30 germinated rice seeds are sown on the paper and moistened with water. The base is covered with a plastic cup and kept in an incubator at 30° C. for five days.
# The base with rice seedlings is placed on the Stand. Each base is sprayed with the solution.
# After drying twelve 3rd-4th instar nymphs of Nephotettix cincticeps-MR are put on the base and confined with the cover. The ST containers on the Stands are kept in the testing room at 25° C. and 50-60% r.h., 16L8D lighting conditions.
# After the specified period of time mortality in % is determined by rating according to the following scheme/criteria: Counting living moving insects, calculate mortality in % by the formula: […]
# [4] = system: Bemisia tabacii biotype B; test: Bemisia tabacii spray test (BEMIAR); settings: 100 ppm, 14 dat, rating scheme b324
# Method: Bemisia tabacii—Spray-Test (BEMIAR)
# Insect: Bemisia tabacii biotype B
# Plant: Tomato seedlings, 5 leaf stage in vinyl pots of 40 mm diameter
# (§4) Solvent pre-mixture: Sorpol® SD: Sorpol® BDB:Dimethylformamide=3:3:14
# 10 mg a.i. is solved with 0.05 ml solvent pre-mixture. Water for dilution contains RME and AS (1000 ppm each) or 0.1% of spreader. Solutions are diluted at the rate of 1:5 for limit concentration determination.
# Procedure: Solutions are sprayed to the plants. After drying treated pots are placed in the greenhouse where breeding BEMIAR for an infection-time of 24 h. Then the plants is placed in the testing room at 25° C. and 50-60% r.h., 16L8D lighting conditions.
# (§5) After the specified period of time mortality in % is determined according to the following scheme/criteria: […]
# [5] = system: Plutella xylostella 3rd instar larvae; test: Plutella xylostella spray test (PLUTXY); settings: PLUTMA; 0.8 ppm; 7 dat
# Method: Plutella xylostella—Spray Test (PLUTXY)
# Insect: Plutella xylostella 3rd instar larvae from own culture
# Material: A-PET cup, A-PET lids
# Plant: Broccoli 5 leaf stage
# as §4
# 10 mg a i. is solved with 0.05 ml solvent pre-mixture
# (§6) Water for dilution contains RME and AS (1000 ppm each) or 0.1% of spreader. Solutions are diluted at the rate of 1:5 for limit concentration determination.
# Procedure: Broccoli seedlings of 4-5 leaf stage planted in a vinyl pot (9 cm diameter) are sprayed with the solution. After drying half of the leaves of the plants are cut and put into a A-PET cup. Ten larvae of Plutella xylostella L3 are released in the cup and the dish is placed at 25° C. After 4 days another half leaf is cut and added to the dish. After the specified period of time mortality in % is determined according to the figures of mortality used for evaluation. • 1 larva dead: 20% Efficacy • 5 larvae dead: 100% Efficacy Adoxophyes honmai—Test (ADXPFA)
# [6] = system: Aulacophora femoralis 2nd instar larvae; test: Aulacophora femoralis spray test (AUACFE); settings: 0.8 ppm, 6 dat, rating scheme b297
# Method: Aulacophora femoralis—Spray Test (AUACFE)
# Insect: Aulacophora femoralis 2nd instar larvae from own culture;
# Material: PET cups with 5 ml soil and A-PET lids
# Plant: Cucumber (Cucumis sativus var. Hanshiro), cotyledon stage; 1 plant per pot;
# Solvent pre-mixture: Sorpol® SD: Sorpol® BDB:Dimethylformamide=3:3:14;
# 10 mg a.i. solved with 0.05 ml solvent pre-mixture. Water for dilution contains RME and AS (1000 ppm each) or 0.1% of spreader. Solutions are diluted at the rate of 1:5 for limit concentration determination.
# Procedure: Solutions are sprayed onto a plant. After drying, plants are cut and put on the soil in the testing cup. Five larvae L2 are released into each testing cup.
# The testing cup is covered with the lid and stored at 25° C. and 50-60% r.h., 16L8D lighting conditions.
# After the specified period of time, the mortality in % is determined according to the following scheme/criteria: […]
# Panonychus citri = Panonychus citri spray test (METTCI); settings: 4 ppm, 7 dat, rating scheme b306
# Method: Panonychus citri—Spray Test (METTCI)
# Plant: Citrus plants, ca 8 cm height
# as §4
# (§7) 10 mg a i. is solved with 0.05 ml solvent pre-mixture.
# as §6
# Procedure: 1 day before treatment mites were inoculated onto potted citrus plants, about 50 adults and some nymphs for 1 pot. The test solution is sprayed directly onto both mites and plants. After drying pots are stored at 25° C.
# After the specified period of time mortality in % is determined by rating according to the following scheme/criteria.
# [7] = system: Spodoptera litura L2 stage; test: Spodoptera litura root soaking test (PRODLI); settings: 20 ppm, 4 dat
# Method: Spodoptera litura—Root Soaking Test (PRODLI)
# Insect: Spodoptera litura L2 stage;
# Material: Culture media bottles for hydroponics: Plastic (A-PET) cups for test, square type;
# Plant: Broccoli 5 leaf stage (ca. 12 cm high), soil around the roots was washed off just before the test;
# Solvent pre-mixture “Sorpol SD” for root soaking test;
# Sorpol SD: Sorpol BDB:Dimethylformamide=3:3:140
# Procedure: Test solutions are prepared in the bottles at the appropriate concentration. The test plant root is dipped into the test solution in the bottle and kept in a test room. After 3 days, ⅓ part of the leaves of the plants is cut and put into the A-PET cup.
# Into each test cup five larvae L2 are released, the cup is covered with a lid and stored at 25° C. and at a relative humidity of 50-60% and under 16L8D lighting conditions.
# After the specified period of time the mortality in % is determined and the rate of death is calculated.
# [8] = system: Tetranychus urticae-S (sensible strain) mixed population; test: Tetranychus urticae test (TETRUR); settings: 0.16 ppm, 2 dat, rating scheme b334
# Method: Tetranychus urticae—Test (TETRUR)
# Insect: Tetranychus urticae-S (sensible strain) mixed population from own culture
# Plant: Kidney bean seedlings (Phaseolus vulgaris var. Serena), 2 leaf stage (1 week after sowing)
# as §4, §7, §6
# Procedure: 1 day before treatment the apex parts of testing plants are pruned. Mites are inoculated onto the testing plants, about 20 adults per leaf, 40 adults and some nymphs for 1 pot. A paper label is placed on each pot. The solution is sprayed onto mites and plants. After drying pots are placed in the greenhouse, temperature 20° C.-25° C.
# as §5
Structure (SMILES),Efficacy/day(s) of treatment [2],Efficacy/day(s) of treatment ([3]; 100 ppm),Efficacy/day(s) of treatment [4],Efficacy/day(s) of treatment [5],Efficacy/day(s) of treatment [7],Efficacy/day(s) of treatment [8],other results
"Cc1cc(C2=NCC(c3cc(C(F)(F)F)cc(C(F)(F)F)c3)(C(F)(F)F)C2)ccc1C(=O)NC1CS(=O)(=O)C1 (stereo not drawn) [Compound 1-21, 4-{3-[3,5-Bis(trifluoromethyl)phenyl]-3-(trifluoromethyl)-3,4-dihydro-2H-pyrrol-5-yl}-N-(1,1-dioxidothietan-3-yl)-2-methylbenzamide]",98%/6 dat,90%/7 dat,98%/14 dat,100%/7 dat,–,–,pest or weed control at 100 ppm (Spodoptera litura): 100%; pest or weed control at 100 ppm (Tetranychus urticae): 100%; pest or weed control at 100 ppm (Aulacophora femoralis): 100%; insecticidal activity [1]: 100%
"Cc1cc(C2=NOC(c3cc(C(F)(F)F)cc(C(F)(F)F)c3)(C(F)(F)F)C2)ccc1C(=O)NC1CS(=O)(=O)C1 (stereo not drawn) [Compound C-1, reference compound]",60%/6 dat,70%/7 dat,60%/14 dat,80%/7 dat,–,–,–
"Cc1cc(C2=NOC(c3cc(C(F)(F)F)cc(C(F)(F)F)c3)(C(F)(F)F)C2)ccc1C(=O)NC1CSC1 (stereo not drawn) [ExNo A21 of WO 2009/080250, reference compound]",60%/6 dat,–,60%/14 dat,–,–,–,Efficacy/day(s) of treatment [6]: 50%/6 dat; Efficacy/day(s) of treatment (Panonychus citri): 0%/7 dat; Efficacy/day(s) of treatment ([3]; 20 ppm): 0%/7 dat
Cc1cc(C2=NCC(c3cc(Cl)cc(Cl)c3)(C(F)(F)F)C2)ccc1C(=O)NC1CSC1 (stereo not drawn) [ExNo A49 of WO 2010/020522],–,–,–,–,100%/4 dat,90%/2 dat,–
Cc1cc(C2=NOC(c3cc(Cl)cc(Cl)c3)(C(F)(F)F)C2)ccc1C(=O)NC1CSC1 (stereo not drawn) [ExNo A-4 of WO 2009/080250],–,–,–,–,80%/4 dat,60%/2 dat,–
